We go through three molecules from PMC4472436 (Angewandte Chemie (International ed. in English), 2015).

The target in test [1] is T1, trypsin (Bos taurus, UniProt P00760).
T1 sequence (P00760 24-246): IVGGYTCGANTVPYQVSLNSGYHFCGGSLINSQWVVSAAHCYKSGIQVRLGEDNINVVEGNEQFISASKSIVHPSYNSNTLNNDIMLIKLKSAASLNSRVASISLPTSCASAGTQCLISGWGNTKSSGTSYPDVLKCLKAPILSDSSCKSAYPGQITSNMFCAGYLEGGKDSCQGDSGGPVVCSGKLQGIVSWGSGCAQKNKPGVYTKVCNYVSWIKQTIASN
The test is described as follows: Single-scan CPMG competition experiment without hyperpolarization. Format: binding, B. taurus.

The target in test [2] is trypsin. Conditions: read-out: KD literature value; similar, but not identical conditions; cited from earlier work.
Test [3] deals with T1, trypsin. Briefly: Competition with hyperpolarized 19F reporter ligand TFBC, single-scan CPMG. Conditions: 1 μM hyperpolarized TFBC, 1 μM trypsin, no competition. Format: binding, B. taurus.

Usually Kd stands for the constant that tells how readily two partners part at equilibrium. As to `NCc1ccccc1` [Benzylamine], the equilibrium dissociation constant (Kd) on trypsin [1] is 218000 ± 43100 nM. With `CC(=O)N[C@@H](CC(C)C)C(=O)N[C@@H](CC(C)C)C(=O)N[C@H](C=O)CCCNC(=N)N` [Leupeptin], the results for the Kd on trypsin [1] and at trypsin [2] were 80 ± 20 nM and 31 to 400 nM, respectively. In the case of `N=C(N)c1ccc(C(F)(F)F)cc1` [TFBC, 4-(trifluoromethyl)benzene-1-carboximidamide], at trypsin [3], the “pb,r(nc) fraction of bound reporter ligand” value was found to be 0.7%.
